Results from patent US10758552B2, “Pharmaceutical composition containing combinations of nicotinamide and 5-aminosalicylic acid for beneficially influencing the intestinal microbiota and/or treating gastrointestinal inflammation” (CONARIS RESEARCH INSTITUTE AG, priority 2013, dated 2020).

Tests used:
[1] = system: dextrane sodium sulfate (DSS) colitis model in mice; assay: DSS colitis model in mice on Trp/Nia/NAM-free diet, histological scoring of the colon (Example 1); format: in vivo, C57BL/6J mice; settings: 1.5% DSS
Description: In order to characterise the combined effect of 5-ASA and nicotinamide (NAM) in controlled release formulations for targeted delivery of both substances to the intestinal epithelium, a study was conducted in a dextrane sodium sulfate (DSS) colitis model in mice. In this study, a controlled release granule formulation for was tested in two different doses (30 mg/kg and 60 mg/kg). As a representative controlled release formulation for 5-ASA, 5-ASA granules ([…]®; Ferring Pharmaceuticals, Saint-Prex, Switzerland) were used both alone and in combination with the NAM granules. The controlled release formulation for NAM is a granulate of 25% nicotinamide, 70% dibasic calcium phosphate and 5% Povidone K30. The mean particle size was 234 μm. […] Filtering removed particles with a size of less than 355 μm. Control granules replaced NAM with an equivalent amount of dibasic calcium phosphate. Male C57BL/6J mice (specific pathogen free; Charles River Laboratories, Saint-Germain-sur-l'Arbresle, France) were taken into the test facility at >12 weeks of age and acclimatised for 1 week. The diet during the acclimatisation phase was diet A4, produced by SAFE (Scientific Animal Food and Engineering, Augy, France). […] The fixed doses for the other granules were calculated in an analogous fashion. […]

murine DSS colitis model = assay: DSS colitis model in mice on normal diet, disease activity index (DAI) scoring (Example 2); format: in vivo, C57BL/6J mice; settings: for % improvement of DAI vs DSS: granules in food, 2.5% DSS
Description: In a second and much larger study, NAM and 5-ASA controlled release granules were used again in the murine DSS colitis model (see Example 1) to confirm the anti-inflammatory properties of NAM in one low dose (30 mg/kg) and to investigate two higher dosages (120 or 240 mg/kg) not administered in the first study. […] One very important difference to the first study described in Example 1 was the fact that the mice received normal food with normal levels of tryptophan, nicotinic acid and nicotinamide (SAFE diet A4; Scientific Animal Food and Engineering, Augy, France; see Example 1). Therefore, any effects observed in this second study cannot be due to supplementation of NAM to NA/NAM/Trp-starved mice. In the present study, the same DSS colitis model in C57BL/6J mice as in Example 1 was used, albeit with some minor modifications: 2.5% DSS were used to provide a stronger DSS challenge. The animals were acclimatised for one week to stabilise their microbiota, randomised into 9 different groups as illustrated in the following Table 1 and then kept for 10 days on the different diets (days -10 to -1) before inducing colitis by DSS in the drinking water (day 0-day 6) followed by a washout period with normal drinking water (day 6-day 9). All groups received 2.5% DSS. [table] [table] The 5-ASA granules were the same as in Example 1. Their 5-ASA content was 52% (one granule weighed 0.5 mg and contained 0.26 mg of 5-ASA). The 5-ASA granules were mixed with regular food for preparation of single-use food aliquots, which were stored frozen at -20° C. and thawed daily prior to feeding the mice. […] Therefore, the food was prepared with 2.88 g of granules per kg of food (for the 150 mg/kg dose) or 1.44 g/kg (for the 75 mg/kg dose). The NAM granules of the present example were produced by the same manufacturer and in a similar formulation (diameter: 0.355-0.500 mm; NAM content: 19.1%) as in Example 1. Three kinds of food were prepared in an analogous fashion to the food with 5-ASA granules as described above. […] Therefore, the food preparation for the three dose groups was performed as follows: 1.57 g of granules per kg of food for the 30 mg/kg dose group, 6.28 g of granules per kg of food for the 120 mg/kg dose group and 12.56 g of granules per kg of food for the 240 mg/kg dose group. For the control group, food without granules was processed in the same fashion as the granule-containing food preparations described above in order to exclude preparation artefacts. After euthanasia, the colon was analysed and the disease activity index (DAI; score 0-9) was scored using an adapted DAI system based on […] et al. 2005 (Am. J. Physiol. Gastrointest. Liver Physiol. 288:[…]). As no visible blood was observed, the blood scoring parameter according to […] et al. was changed to scoring the signal strength for occult blood in feces detected by the ColoScreen test (Helena Laboratories, Beaumont, Tex., USA). This signal strength scoring was performed independently by two investigators blinded to the identity of the samples. [table] All comparisons were analysed using the […] for two independent samples in the StatXact software (Cytel, Cambridge, Mass., USA).

SMILES | histological score of the colonic mucosa ([1]; NAM granules alone in diet, 30 or 60 mg/kg) | % improvement of DAI vs DSS (murine DSS colitis model; 30 mg/kg NAM) | % improvement of DAI vs DSS (murine DSS colitis model; 120 mg/kg NAM) | % improvement of DAI vs DSS (murine DSS colitis model; 240 mg/kg NAM) | disease activity index (DAI), dose effect (murine DSS colitis model; NAM alone from 30 to 240 mg/kg) | macroscopic inflammation score, dose effect (murine DSS colitis model; NAM alone, 30 to 240 mg/kg) | stool consistency (diarrhea) (murine DSS colitis model; different NAM doses alone) | histological score of the colonic mucosa ([1]; 5-ASA granules alone in diet, 150 mg/kg) | stool consistency (diarrhea) (murine DSS colitis model; 75 mg/kg 5-ASA alone) | % improvement of DAI vs DSS (murine DSS colitis model; 75 mg/kg 5-ASA) | stool consistency (diarrhea) (murine DSS colitis model; 150 mg/kg 5-ASA alone) | % improvement of DAI vs DSS (murine DSS colitis model; 150 mg/kg 5-ASA) | mice having blood in the feces (occult blood) (murine DSS colitis model; 150 mg/kg 5-ASA, control mice 100%, day of necropsy) | macroscopic inflammation score, dose effect (murine DSS colitis model; 5-ASA alone, 75 vs 150 mg/kg) | disease activity index (DAI), dose effect (murine DSS colitis model; doubling the dose of 5-ASA from 75 to 150 mg/kg)
NC(=O)c1cccnc1 [NAM, nicotinamide] | trend towards histological improvement | 39% | 40% | 40% | no dose response | slight dose-dependent effect | hardly improved | – | – | – | – | – | – | – | –
Nc1ccc(O)c(C(=O)O)c1 [5-ASA, 5-aminosalicylic acid] | – | – | – | – | – | – | – | trend towards histological improvement | hardly improved | 28% | significant effect | 43% | 53% | no difference | stronger decrease of the DAI
